Our source for the Ki values is ChEMBL document CHEMBL6071184, “Lasamide, a Potent Human Carbonic Anhydrase Inhibitor from the Market: Inhibition Profiling and Crystallographic Studies” (ACS Med Chem Lett, 2024).

In one test the target is Carbonic anhydrase 4 (Homo sapiens, UniProt P22748). The test can be described thus: Inhibition of full-length recombinant human CA IV-catalysed CO2 hydration by stopped-flow technique.
A further test has as its target Carbonic anhydrase 13 (Mus musculus, UniProt Q9D6N1). The test can be described thus: Inhibition of mouse CA XIII-catalysed CO2 hydration by stopped-flow technique.
The target of a further test is Carbonic anhydrase 7 (Homo sapiens, UniProt P43166).
Test [1] addresses Carbonic anhydrase 5A, mitochondrial (Homo sapiens, UniProt P35218).
Description: Inhibition of full-length recombinant human CA VA-catalysed CO2 hydration by stopped-flow technique
For another test, the target named is Carbonic anhydrase 14 (Homo sapiens, UniProt Q9ULX7). Briefly: Inhibition of full-length recombinant human CA XIV-catalysed CO2 hydration by stopped-flow technique.
For another test, the target named is Carbonic anhydrase 3 (Homo sapiens, UniProt P07451).
Test [2] concerns the target Carbonic anhydrase 5B, mitochondrial (Homo sapiens, UniProt Q9Y2D0). The test can be described thus: Inhibition of full-length recombinant human CA VB-catalysed CO2 hydration by stopped-flow technique.
Test [3] has as its target T1, Carbonic anhydrase 6 (Homo sapiens, UniProt P23280).
Description: Inhibition of full-length recombinant human saliva CA VI-catalysed CO2 hydration by stopped-flow technique
Test [4] deals with T1, Carbonic anhydrase 6. This is another data set of the same source.
Description: Inhibition of full-length recombinant human milk CA VI-catalysed CO2 hydration by stopped-flow technique

What is called Ki is the equilibrium dissociation constant of an inhibitor or competing ligand from its target.

T1 sequence (P23280 whole entry): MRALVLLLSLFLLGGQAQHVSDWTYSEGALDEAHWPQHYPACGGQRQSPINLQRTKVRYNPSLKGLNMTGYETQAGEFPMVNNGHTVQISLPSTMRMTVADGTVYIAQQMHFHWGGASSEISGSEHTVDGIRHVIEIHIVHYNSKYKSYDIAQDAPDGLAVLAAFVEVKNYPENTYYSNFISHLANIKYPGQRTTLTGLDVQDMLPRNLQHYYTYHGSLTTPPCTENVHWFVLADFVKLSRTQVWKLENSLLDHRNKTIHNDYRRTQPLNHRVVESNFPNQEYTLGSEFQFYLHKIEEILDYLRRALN
Carbonic anhydrase 4, sequence (P22748 whole entry): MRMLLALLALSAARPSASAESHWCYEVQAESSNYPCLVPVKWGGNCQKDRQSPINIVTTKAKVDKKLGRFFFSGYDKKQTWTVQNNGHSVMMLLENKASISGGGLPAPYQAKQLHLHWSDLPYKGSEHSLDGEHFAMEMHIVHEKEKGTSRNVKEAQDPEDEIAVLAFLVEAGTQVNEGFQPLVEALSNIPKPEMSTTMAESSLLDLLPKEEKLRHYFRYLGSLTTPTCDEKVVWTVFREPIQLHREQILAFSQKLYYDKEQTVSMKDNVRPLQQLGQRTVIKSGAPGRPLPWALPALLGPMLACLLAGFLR
Carbonic anhydrase 5A, mitochondrial, sequence (P35218 whole entry): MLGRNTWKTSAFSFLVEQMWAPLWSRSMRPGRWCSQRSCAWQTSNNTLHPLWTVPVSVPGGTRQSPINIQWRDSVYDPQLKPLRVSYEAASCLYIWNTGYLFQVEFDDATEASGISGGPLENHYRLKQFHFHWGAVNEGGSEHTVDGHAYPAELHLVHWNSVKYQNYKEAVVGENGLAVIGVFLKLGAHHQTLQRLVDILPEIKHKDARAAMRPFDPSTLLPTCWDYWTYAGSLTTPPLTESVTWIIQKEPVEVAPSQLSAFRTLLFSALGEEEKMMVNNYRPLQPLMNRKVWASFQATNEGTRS
Carbonic anhydrase 13, sequence (Q9D6N1 whole entry): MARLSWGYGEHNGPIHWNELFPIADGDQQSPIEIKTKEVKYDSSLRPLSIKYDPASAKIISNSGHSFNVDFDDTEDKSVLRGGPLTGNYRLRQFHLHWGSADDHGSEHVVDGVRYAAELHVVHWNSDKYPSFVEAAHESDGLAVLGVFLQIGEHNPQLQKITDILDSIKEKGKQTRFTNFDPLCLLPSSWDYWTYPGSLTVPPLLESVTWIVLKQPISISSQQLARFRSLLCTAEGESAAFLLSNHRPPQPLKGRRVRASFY
Carbonic anhydrase 14, sequence (Q9ULX7 whole entry): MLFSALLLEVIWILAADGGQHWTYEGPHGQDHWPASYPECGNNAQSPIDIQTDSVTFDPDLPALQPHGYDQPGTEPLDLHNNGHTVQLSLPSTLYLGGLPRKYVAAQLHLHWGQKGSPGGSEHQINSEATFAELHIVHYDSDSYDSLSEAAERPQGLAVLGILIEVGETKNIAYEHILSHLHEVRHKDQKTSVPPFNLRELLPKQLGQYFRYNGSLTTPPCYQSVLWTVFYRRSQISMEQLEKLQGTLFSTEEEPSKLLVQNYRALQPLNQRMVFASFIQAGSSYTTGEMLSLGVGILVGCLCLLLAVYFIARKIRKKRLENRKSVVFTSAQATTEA
Carbonic anhydrase 3, sequence (P07451 whole entry): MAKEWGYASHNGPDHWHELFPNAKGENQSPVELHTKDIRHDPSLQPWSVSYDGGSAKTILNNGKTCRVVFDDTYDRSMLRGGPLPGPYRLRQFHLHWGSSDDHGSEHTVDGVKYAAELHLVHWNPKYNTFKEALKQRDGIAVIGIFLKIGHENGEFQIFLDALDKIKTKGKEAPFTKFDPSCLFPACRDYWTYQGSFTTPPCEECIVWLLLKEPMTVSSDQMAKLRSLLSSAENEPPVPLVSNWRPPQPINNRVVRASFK
Carbonic anhydrase 7, sequence (P43166 whole entry): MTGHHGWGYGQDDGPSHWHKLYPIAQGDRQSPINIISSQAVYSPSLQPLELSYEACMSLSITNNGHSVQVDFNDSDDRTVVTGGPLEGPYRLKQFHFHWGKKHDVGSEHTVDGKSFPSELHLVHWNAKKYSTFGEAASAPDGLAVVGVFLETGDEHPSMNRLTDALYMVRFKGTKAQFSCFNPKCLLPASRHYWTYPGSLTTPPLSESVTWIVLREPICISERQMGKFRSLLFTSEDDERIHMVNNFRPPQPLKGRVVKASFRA
Carbonic anhydrase 5B, mitochondrial, sequence (Q9Y2D0 whole entry): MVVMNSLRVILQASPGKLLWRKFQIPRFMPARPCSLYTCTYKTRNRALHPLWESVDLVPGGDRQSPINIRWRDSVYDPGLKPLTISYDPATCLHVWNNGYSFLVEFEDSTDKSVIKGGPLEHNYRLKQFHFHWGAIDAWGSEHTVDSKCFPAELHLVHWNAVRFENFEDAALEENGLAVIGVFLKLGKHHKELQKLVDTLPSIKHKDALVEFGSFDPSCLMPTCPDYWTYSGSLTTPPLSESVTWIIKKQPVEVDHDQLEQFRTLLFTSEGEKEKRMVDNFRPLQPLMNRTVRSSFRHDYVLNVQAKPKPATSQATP
Description for Carbonic anhydrase 3: Inhibition of full-length recombinant human CA III-catalysed CO2 hydration by stopped-flow technique
Description for Carbonic anhydrase 7: Inhibition of full-length recombinant human CA VII-catalysed CO2 hydration by stopped-flow technique

Regarding `NS(=O)(=O)c1cc(C(=O)O)c(Cl)cc1Cl`, the Ki at Carbonic anhydrase 4 is 1.91 nM; on Carbonic anhydrase 13, 9.37 nM; at Carbonic anhydrase 7 it was 6.63 nM; in test [1] it was 3.49 nM; on Carbonic anhydrase 14, 11.9 nM; at Carbonic anhydrase 3, greater than 50000 nM. The Ki amounted to 14.2 nM in test [2], 11.7 nM at Carbonic anhydrase 6 [3] and 8.51 nM on Carbonic anhydrase 6 [4].
